According to patent publication US20120156311A1, “COMBINATION THERAPY FOR CANCER COMPRISING A PLATINUM-BASED ANTINEOPLASTIC AGENT AND A BIOCOMPATIBLE ELECTRON DONOR” (priority 2009, published 2012):
“Also recorded” adds a separate entry of the source.

Legend:
[1] = system: HeLa (cervical cancer) cells; assay: MTT cell survival assay in HeLa cells; format: cell-based, human
Experimental: Thus, appropriate doses of the molecular promoters were selected by initially screening for toxicity. […] The viability of cells was measured by MTT assay, one of the most commonly used cell viability assays. This method involves the conversion of MTT (3-(4,5-dimethylthiazol-2-yl)-2,5-diphenyltetrazolium bromide) to an insoluble formazan by metabolically-active cells (live cells). Using a solubilizing agent, the formazan is dissolved and its absorbance measured, giving indication to the number of cells that survive.
Cells were cultured in 96-well plates (5×10^3 cells/well) for 24 h. The culture medium was replaced by new culture medium and incubated for 24 h with varying drug concentrations. After the drug treatment, cells were replaced with new medium containing 1.2 mM MTT (Sigma) and incubated for 4 h. The medium was then removed and the formazan crystals solubilized by 100 μL DMSO. The surviving fraction was determined by measuring the absorbance at 540 nm using a Multiskan Spectrum UV/Vis microplate reader (Thermo Scientific), which is directly proportional to the number of viable cells.

[2] = system: HeLa (cervical cancer) cells; assay: APO-BrdU TUNEL DNA fragmentation assay (flow cytometry) in HeLa cells; format: cell-based, human; details: for cells with DNA fragmentation (BrdU-positive): 48 h
Experimental: DNA fragmentation was detected using a standard apoptosis assay, APO-BrdU TUNEL, which utilizes the fact that DNA strand breaks expose a large number of 3′-OH ends, which act as a starting point for terminal deoxynucleotidyl transferase (TdT) to add deoxyribonucleotides. The break sites are labeled by the addition of BrdUTP in the presence of the TdT enzyme. An anti-BrdU antibody conjugated with a fluorescent molecule is added to detect the strand breaks by measuring their fluorescence intensities using flow cytometry. The cell cycle distribution can also be detected simultaneously from the ordinate axis of the generated dot plot (with the BrdU-content on the y-axis), where the events with fluorescence intensity above the background indicate the cells with fragmented DNA (within upper box).
Cells were cultured in 25 cm^2 flasks (˜8×10^7 cells/flask) for 24 h. The culture medium was replaced by new medium and incubated for 48 h with varying drug concentrations. Both floating and adherent cells were harvested by trypsinization and fixed using 1% paraformaldehyde for 30 minutes. Cells were then permeabilized using 70% ice-cold ethanol for at least 24 h at −20° C. Samples were prepared for DNA fragmentation measurements using the APO-BrdU DNA Fragmentation Assay (Invitrogen). To label the DNA, ethanol was removed and cells were resuspended in 50 μL of TUNEL reaction buffer containing terminal deoxynucleotidyl transferase and BrdUTP for 1 h at 37° C., shaking every 15 min. After overnight room temperature incubation, the cells were then incubated with Alexa Fluor 488-conjugated BrdUTP-antibody for 30 min at room temperature. Cells were also stained with propidium iodide (5 μg/mL) and incubated with RNase A for 30 min at room temperature to determine the total cellular DNA content. Samples were then analyzed by a Becton-Dickinson FACSVantage SE flow cytometer in pulse processing mode (10 000 cells per sample). Computational analyses were performed using FCS Express software (De Novo Software, Los Angeles, Calif.) to obtain FL1-H versus FL2-A dot plots (log versus linear, respectively), gating on front scatter (FSC) versus side scatter (SSC) to eliminate debris, as well as FL2-A versus FL2-W to eliminate doublets. Experiments were performed independently at least 3 times
DNA fragmentation was measured by using the APO-BrdU TUNEL assay.

[3] = system: NIH-OVCAR-3 (HTB-161) cisplatin-resistant human ovarian cancer cells; assay: MTT cell viability assay in cisplatin-resistant HTB-161 cells; format: cell-based; details: for effect of combination with cisplatin on viability and drug resistance: cisplatin combined with electron donor (100 μM TMPD)
Experimental: Briefly, HTB-161 cells were plated at a density of 7×10^3 cells/well in 96-well plates. […] After incubation for specified times at 37° C. in a humidified incubator, 20 μL of MTT (5 mg/mL in PBS) were added to each well, and cells were incubated for a further 4 h. After removal of the medium, 100 μL DMSO was added to each well. The absorbance was recorded on a microplate reader at the wavelength of 540 nm.

[4] = system: NIH-OVCAR-3 (HTB-161) cisplatin-resistant human ovarian cancer cells; assay: APO-BrdU TUNEL DNA fragmentation assay (flow cytometry) in HTB-161 cells; format: cell-based
Experimental: The method based on terminal deoxyribonucleotidyl transferase (TdT)-mediated dUTP nick-end labelling was used to determine the cell apoptosis. […] DNA fragmentation was measured by using the APO-BrdU TUNEL assay. […] After trypsinized, the cells were washed with PBS, were processed for labeling with the deoxythymidine analog 5-bromo-2′-deoxyuridine 5′-triphosphate (BrdUTP), and were incubated with an Alexa Fluor 488 dye-labeled anti-BrdU antibody and propidium iodide by the use of an APO-BrdU™ TUNEL Assay Kit (Invitrogen) as per manufacturer's protocol. The labeled cells were analyzed by flow cytometry.

[5] = system: NIH-OVCAR-3 (HTB-161) cisplatin-resistant human ovarian cancer cells; assay: Cell cycle analysis by flow cytometry in HTB-161 cells; format: cell-based; details: cisplatin alone or with 100 μM TMPD, 24 h
Experimental: HTB-161 cells were plated at a density of 2×10^5 per well on six-well plates. […] The cells were trypsinized, washed twice with chilled PBS, and centrifuged. The cell pellet was resuspended in 70% ethanol at −20° C. overnight. The cells were centrifuged at 1,000 rpm for 5 min; the pellet was washed twice with chilled PBS, suspended in 500 μL PBS, and incubated with RNase (20 μg/mL final concentration) at 25° C. for 30 min and with propidium iodide (50 μg/mL final concentration) for an additional 30 minutes. The cells were analyzed by flow cytometry. Flow cytometry was done with a FACS vantage SE (Becton Dickinson). A minimum of 10,000 cells per sample were counted and the DNA histograms were further analyzed by using FCS Express software for cell cycle analysis.

[6] = system: Plasmid DNA [pGEM 3Zf(−), 3197 kp]; assay: Agarose gel electrophoresis of plasmid DNA damage; format: biochemical, Escherichia Coli; details: cisplatin alone, up to 3.0 mM
Source text: The gel electrophoresis was used for quantitative measurements of plasmid DNA damage, characterizing single-strand breaks (SSBs), double-strand breaks (DBSs) and crosslinks (CLs). We also used the γH2AX DNA damage assay (Invitrogen) to detect DSBs of genomic DNA in cancer cells. Briefly, DNA damaging radicals induce phosphorylation of histone variant H2AX (Ser139) forming DNA foci at the site of DNA DSBs. Phosphorylated H2AX aids in the recruitment of proteins responsible for DSB repair.
Aliquots equivalent to 96 ng DNA were removed from the solutions for gel electrophoresis. All aliquots were analyzed with a standard agarose gel electrophoresis method, namely, on 1% neutral TAE agarose gel in TAE running buffer. The gel was prestained with 1 μg/ml ethidium bromide.

Row | SMILES | toxicity of TMPD alone (cell survival / viability) ([1]; TMPD alone, up to 100 μM) | cells with DNA fragmentation (BrdU-positive) ([2]; 100 μM TMPD alone) | cell viability ([3]; 100 μM TMPD alone) | effect of combination with cisplatin on viability and drug resistance [3] | DNA fragmentation (BrdU positive cells) ([4]; 100 μM TMPD alone) | toxicity of ICG alone (cell survival) ([1]; ICG alone, up to 200 μM) | killing of HeLa cells ([1]; 10 and 20 μM cisplatin alone) | cell survival rates ([1]; CDDP alone, 24 h) | cells with DNA fragmentation (BrdU-positive) ([2]; 10 μM CDDP without or with 100 μM TMPD) | cells with DNA fragmentation (BrdU-positive) ([2]; 25 μM CDDP without or with 100 μM TMPD) | cells with DNA fragmentation (BrdU-positive) ([2]; 50 μM CDDP without or with 100 μM TMPD) | cell cycle arrest ([2]; HeLa cells, CDDP as single agent (lower doses) or with TMPD) | resistance of HTB-161 cells to cisplatin ([3]; cisplatin alone, 200-300 uM) | DNA fragmentation (BrdU positive cells) ([4]; 50 μM cisplatin without or with 100 μM TMPD) | distribution of cells in the cell cycle [5] | DNA strand breaks in plasmid DNA [6]
1 | CN(C)c1ccc(N(C)C)cc1 [TMPD, N,N, N′,N′-tetramethyl-p-phenylene diamine] | very mild toxicity; also recorded: only slightly decreased the cell viability; also recorded: no significant toxicity | 2% | slight decrease of the cell viability | rendered cisplatin-resistant tumor cells almost completely sensitive | 0.04% | – | – | – | – | – | – | – | – | – | – | –
2 | CC1(C)C(/C=C/C=C/C=C/C=C2\N(CCCCS(=O)(=O)[O-])c3ccc4ccccc4c3C2(C)C)=[N+](CCCCS(=O)(=O)[O-])c2ccc3ccccc3c21.[Na+] [ICG, Indocyanine green] | – | – | – | rendered cisplatin-resistant tumor cells almost completely sensitive | – | no significant toxicity | – | – | – | – | – | – | – | – | – | –
3 | N.N.[Cl][Pt][Cl] [cisplatin, cis-diamminedichloroplatinum(II)] | – | – | – | – | – | – | 20% | decreased the cell survival rates in a dose-dependent manner | 9% | 6% | 38% | accumulate in the G2/M phase | strong resistance | 3.61% | accumulation of cells in the G1 phase | no SSBs and DSBs but intrastrand cross links only; also recorded: intrastrand cross links only, with no SSBs or DSBs
